Literature values in US20080139664A1, “ANTI-GLYCATION AGENTS FOR PREVENTING AGE-, DIABETES-, AND SMOKING-RELATED COMPLICATIONS” (NATIONAL RESEARCH COUNCIL OF CANADA, priority 2001, published 2008).

Assays:
dopaminergic neurons = conditions: cited from earlier work
human eye = conditions: topical administration of up to 20%; cited from earlier work

In the case of `NC[C@H](O)c1ccc(O)c(O)c1` [noradrenaline], the EC50 (dopaminergic neurons; read-out: EC50, reduction of oxidative stress related to glycation) is listed as about 300 nM and the “concentrations of intracellular reactive oxygen species” value (dopaminergic neurons; treatment with 1 μM) is listed as “drastically reduced”.
For `CC(C)NCC(O)c1ccc(O)c(O)c1.Cl` [D-isoproterenol hydrochloride], the “effect on intra-ocular pressure” value (human eye) is given as “did not lower intra-ocular pressure”.
